In article PMC4300089, “Structure-Guided Design of Selective Epac1 and Epac2 Agonists” (PLoS Biology, 2015):

Columns and labels:
Epac2 = target: T1, Epac2 (Mus musculus, UniProt Q9EQZ6); experiment: Cellular Epac activity: Rap•GTP levels in U2OS cells stably expressing Epac2; format: cell-based, homo sapiens; details: for rel. RapGTP: relative to induction with forskolin and IBMX, Fig. 6C
T1 construct: pBabe-Flag-Epac2 (Epac2, mus musculus, amino acids 1–993); expressed in transfected cells; host or cells: U2OS
T1 sequence (Q9EQZ6 1-993 isoform Q9EQZ6-3): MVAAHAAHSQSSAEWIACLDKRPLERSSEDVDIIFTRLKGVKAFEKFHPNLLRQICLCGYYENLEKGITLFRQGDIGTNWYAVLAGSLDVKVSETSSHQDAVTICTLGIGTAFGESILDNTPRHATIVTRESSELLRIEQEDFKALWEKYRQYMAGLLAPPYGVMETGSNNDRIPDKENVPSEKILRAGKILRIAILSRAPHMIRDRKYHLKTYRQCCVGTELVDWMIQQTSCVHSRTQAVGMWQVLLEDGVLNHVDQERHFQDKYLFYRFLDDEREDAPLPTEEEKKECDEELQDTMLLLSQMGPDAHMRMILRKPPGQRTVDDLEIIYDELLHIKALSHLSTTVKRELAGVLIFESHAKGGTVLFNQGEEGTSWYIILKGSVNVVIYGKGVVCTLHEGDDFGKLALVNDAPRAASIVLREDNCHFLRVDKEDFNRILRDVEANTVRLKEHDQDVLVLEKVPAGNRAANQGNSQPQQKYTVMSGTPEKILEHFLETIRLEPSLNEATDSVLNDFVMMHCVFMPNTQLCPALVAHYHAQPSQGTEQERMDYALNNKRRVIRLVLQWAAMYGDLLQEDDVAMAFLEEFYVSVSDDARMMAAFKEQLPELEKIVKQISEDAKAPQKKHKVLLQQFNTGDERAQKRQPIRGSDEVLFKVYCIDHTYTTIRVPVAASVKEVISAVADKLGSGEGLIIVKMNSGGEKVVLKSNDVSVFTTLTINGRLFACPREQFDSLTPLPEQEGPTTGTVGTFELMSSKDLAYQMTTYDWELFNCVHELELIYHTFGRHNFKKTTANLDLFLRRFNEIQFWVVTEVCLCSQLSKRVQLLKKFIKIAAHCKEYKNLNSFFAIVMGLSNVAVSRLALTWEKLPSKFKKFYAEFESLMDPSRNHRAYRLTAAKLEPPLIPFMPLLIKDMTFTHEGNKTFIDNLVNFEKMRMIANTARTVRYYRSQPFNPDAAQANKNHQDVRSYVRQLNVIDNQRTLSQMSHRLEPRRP
Protocol: Rap•GTP levels were determined by precipitating GTP-bound Rap specifically from cell lysates and subsequent western Blotting with an α-Rap antibody (Santa Cruz Biotechnology). To generate stable cell lines, U2OS cells were transfected with pBabe-Flag-Epac1 (Epac1, homo sapiens, amino acids 1–881) or pBabe-Flag-Epac2 (Epac2, mus musculus, amino acids 1–993), selected for Epac expression and maintained under selection with 2 mg/l puromycin. The cells were cultured according to standard protocols. The activity of PKA was determined by western blotting with a monoclonal α-VASP antibody (BD Transduction Laboratories). Blots were developed by enhanced chemiluminescence (ECL) and the use of X-ray films; for quantification films were scanned. The intensities of the Rap•GTP bands and the upper band of VASP (P-VASP) were determined for each condition in ImageJ and normalized to the stimulation with forskolin and IBMX for each blot.

Epac1 = target: T2, Epac1 (Homo sapiens, UniProt O95398); experiment: Epac activation assay, Epac1; format: biochemical
T2 construct: made in house
T2 sequence (O95398 150-881 isoform O95398-3): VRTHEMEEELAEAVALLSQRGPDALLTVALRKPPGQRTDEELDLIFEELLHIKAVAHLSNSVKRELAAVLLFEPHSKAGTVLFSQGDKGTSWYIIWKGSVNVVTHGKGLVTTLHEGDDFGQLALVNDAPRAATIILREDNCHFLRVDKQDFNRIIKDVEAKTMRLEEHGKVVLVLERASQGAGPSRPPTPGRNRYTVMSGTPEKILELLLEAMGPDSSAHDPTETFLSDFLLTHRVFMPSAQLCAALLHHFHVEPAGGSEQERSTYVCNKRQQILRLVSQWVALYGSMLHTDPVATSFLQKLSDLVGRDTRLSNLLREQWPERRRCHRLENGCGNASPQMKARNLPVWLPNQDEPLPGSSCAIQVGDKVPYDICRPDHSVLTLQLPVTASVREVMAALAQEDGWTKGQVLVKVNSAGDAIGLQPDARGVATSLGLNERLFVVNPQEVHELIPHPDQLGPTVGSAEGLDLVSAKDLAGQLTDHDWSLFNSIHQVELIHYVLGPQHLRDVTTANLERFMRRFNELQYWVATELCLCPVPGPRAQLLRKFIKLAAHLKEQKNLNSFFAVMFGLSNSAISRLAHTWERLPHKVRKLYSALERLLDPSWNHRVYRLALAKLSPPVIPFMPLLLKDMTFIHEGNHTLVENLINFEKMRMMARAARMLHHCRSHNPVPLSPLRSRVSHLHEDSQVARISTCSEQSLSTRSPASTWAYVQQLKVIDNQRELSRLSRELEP

SMILES	rel. RapGTP (Epac2)	kobs (Epac1; 0.01 μM compound)	kobs (Epac1; 0.05 μM compound)	kobs (Epac1; 0.3 μM compound)	kobs (Epac1; 0.5 μM compound)	kobs (Epac1; 0.8 μM compound)	kobs (Epac1; 1 μM compound)	kobs (Epac1; 2 μM compound)	kobs (Epac1; 3 μM compound)	kobs (Epac1; 4 μM compound)	kobs (Epac1; 5 μM compound)	kobs (Epac1; 6 μM compound)	kobs (Epac1; 7 μM compound)	kobs (Epac1; 20 μM compound)	kobs (Epac1; 30 μM compound)	kobs (Epac1; 40 μM compound)	kobs (Epac1; 50 μM compound)	kobs (Epac1; 60 μM compound)	kobs (Epac1; 70 μM compound)	kobs (Epac1; 80 μM compound)	further results
Nc1ncnc2c1nc(Sc1ccc(Cl)cc1)n2[C@@H]1O[C@@H]2COP(=O)(O)O[C@H]2[C@H]1O [L-026, 8-pCPT-cAMP]	0.7828																				
COC1C2OP(=O)(O)OCC2OC1n1c(Sc2ccc(Cl)cc2)nc2c(N)ncnc21 [D-007, 8-pCPT-2′-O-Me-cAMP, reference compound]	0.3431	4.6e-05 s⁻¹	0.000133 s⁻¹	0.000569 s⁻¹	0.000822 s⁻¹	0.00123 s⁻¹	0.00137 s⁻¹	0.00219 s⁻¹	0.00266 s⁻¹	0.00283 s⁻¹	0.00293 s⁻¹	0.00312 s⁻¹	0.00321 s⁻¹	0.00351 s⁻¹	0.00364 s⁻¹	0.00378 s⁻¹	0.00348 s⁻¹	0.00363 s⁻¹	0.0036 s⁻¹	0.00359 s⁻¹	activation of Epac2 in cells (Epac2): only minor effects; kobs (Epac1; 0.08 μM compound): 0.000193 s⁻¹; kobs (Epac1; 0.1 μM compound): 0.000213 s⁻¹; kobs (Epac1; 0.2 μM compound): 0.000391 s⁻¹; kobs (Epac1; 0.4 μM compound): 0.000728 s⁻¹; kobs (Epac1; 0.6 μM compound): 0.000999 s⁻¹; kobs (Epac1; 0.7 μM compound): 0.00113 s⁻¹; kobs (Epac1; 8 μM compound): 0.00328 s⁻¹; kobs (Epac1; 100 μM compound): 0.00349 s⁻¹; potency relative to cAMP by activation potential (times more potently than cAMP) (Epac1; Epac1): 100 times
Cc1ccc(CSc2nc3c(N)ncnc3n2[C@@H]2O[C@@H]3CO[P@](O)(=S)O[C@H]3[C@H]2O)cc1 [S-230, Sp-8-pMeBnT-cAMPS]				1e-05 s⁻¹	1e-05 s⁻¹	1.1e-05 s⁻¹	1.4e-05 s⁻¹	2.1e-05 s⁻¹	2.6e-05 s⁻¹	3e-05 s⁻¹	3.3e-05 s⁻¹	3.8e-05 s⁻¹	4.1e-05 s⁻¹	9.4e-05 s⁻¹	0.000115 s⁻¹	0.000131 s⁻¹	0.000148 s⁻¹	0.000156 s⁻¹	0.000164 s⁻¹	0.00017 s⁻¹	kobs (Epac1; 10 μM compound): 5.6e-05 s⁻¹; kobs (Epac1; 100 μM compound): 0.000198 s⁻¹; kobs (Epac1; 200 μM compound): 0.000232 s⁻¹; kobs (Epac1; 400 μM compound): 0.000232 s⁻¹; kobs (Epac1; 600 μM compound): 0.000218 s⁻¹; kobs (Epac1; 800 μM compound): 0.000186 s⁻¹
Nc1ncnc2c1nc(SCc1ccccc1)n2[C@@H]1O[C@@H]2CO[P@](O)(=S)O[C@H]2[C@H]1O [S-220, Sp-8-BnT-cAMPS]	1.2025	1.6e-05 s⁻¹	1.5e-05 s⁻¹	2e-05 s⁻¹	2.2e-05 s⁻¹	2.8e-05 s⁻¹	4.3e-05 s⁻¹	5.8e-05 s⁻¹	7.9e-05 s⁻¹	9.2e-05 s⁻¹	0.000102 s⁻¹	0.000128 s⁻¹	0.000149 s⁻¹	0.000263 s⁻¹	0.000312 s⁻¹	0.00033 s⁻¹	0.000328 s⁻¹	0.000336 s⁻¹	0.000338 s⁻¹	0.000331 s⁻¹	activation of Epac2 in cells (Epac2): efficiently activated; kobs (Epac1; 0.08 μM compound): 1.6e-05 s⁻¹; kobs (Epac1; 0.1 μM compound): 1.7e-05 s⁻¹; kobs (Epac1; 0.2 μM compound): 1.7e-05 s⁻¹; kobs (Epac1; 0.6 μM compound): 2.5e-05 s⁻¹; kobs (Epac1; 0.7 μM compound): 2.7e-05 s⁻¹; kobs (Epac1; 8 μM compound): 0.000153 s⁻¹; kobs (Epac1; 10 μM compound): 0.000213 s⁻¹; AC50 (Epac1; Epac1): 13 µM; ability to reach half-maximal cAMP activity (Epac1; Epac1): cannot activate Epac1 to the level of half-maximal cAMP-activity; Rel. kmax (Epac1; Epac1, maximal activity relative to cAMP): 0.3
Nc1ncnc2c1ncn2[C@@H]1O[C@@H]2COP(=O)(O)O[C@H]2[C@H]1O [cAMP, reference compound]		1.1e-05 s⁻¹	1.4e-05 s⁻¹	3e-05 s⁻¹	3.8e-05 s⁻¹	4.7e-05 s⁻¹	5e-05 s⁻¹	6.1e-05 s⁻¹	9.3e-05 s⁻¹	0.000116 s⁻¹	0.000161 s⁻¹	0.000161 s⁻¹	0.000189 s⁻¹	0.000421 s⁻¹	0.000589 s⁻¹	0.000692 s⁻¹	0.000746 s⁻¹	0.000796 s⁻¹	0.000848 s⁻¹	0.000859 s⁻¹	kobs (Epac1; 0.08 μM compound): 2.5e-05 s⁻¹; kobs (Epac1; 0.1 μM compound): 2.8e-05 s⁻¹; kobs (Epac1; 8 μM compound): 0.00021 s⁻¹; kobs (Epac1; 10 μM compound): 0.000256 s⁻¹; kobs (Epac1; 100 μM compound): 0.000937 s⁻¹; kobs (Epac1; 200 μM compound): 0.00112 s⁻¹; kobs (Epac1; 400 μM compound): 0.0012 s⁻¹; kobs (Epac1; 600 μM compound): 0.00116 s⁻¹; kobs (Epac1; 800 μM compound): 0.00118 s⁻¹; share of cAMP bound protein still in an inactive conformation (Epac1; Epac1, assuming the most efficient activators shift the equilibrium fully): about 65%
